Measurements published in PubChem BioAssay (NCI).
In brackets after ≈: the same amount, converted by molar mass.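 Results reflect a 48-hour exposure of cells in 96-well plates to compound at five concentrations. The concentration for 50% growth inhibition is given as GI50. TGI is the concentration that stops growth completely.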

Key:
Assay in all cases: NCI anticancer screen, dose series, 48 h
A549 NSCLC = tested on: A549 NSCLC
CAKI-1 renal = tested on: CAKI-1 renal
SNB-75 CNS = tested on: SNB-75 CNS
UO-31 renal = tested on: UO-31 renal
LOX IMVI melanoma = tested on: LOX IMVI melanoma
MDA-MB-231 breast = tested on: MDA-MB-231 breast
OVCAR-3 ovarian = tested on: OVCAR-3 ovarian
SF-539 CNS = tested on: SF-539 CNS
COLO 205 colon = tested on: COLO 205 colon
SW-620 colon = tested on: SW-620 colon

Compound: O=C1NN(C2=NNC3(C(=O)N2)c2ccccc2-c2ccccc23)C(c2ccccc2)=N/C1=C/c1ccc(Cl)cc1
- GI50 (A549 NSCLC): 60.2 µg/mL (≈ 111 µM)
- TGI (A549 NSCLC): > 150 µg/mL
- GI50 (CAKI-1 renal): 74.4 µg/mL (≈ 136 µM)
- TGI (CAKI-1 renal): > 150 µg/mL
- GI50 (SNB-75 CNS): 57.2 µg/mL (≈ 105 µM)
- TGI (SNB-75 CNS): > 150 µg/mL
- GI50 (UO-31 renal): 48 µg/mL (≈ 88 µM)
- TGI (UO-31 renal): > 150 µg/mL
- GI50 (LOX IMVI melanoma): 56.1 µg/mL (≈ 103 µM)
- TGI (LOX IMVI melanoma): > 150 µg/mL
- GI50 (MDA-MB-231 breast): 47.9 µg/mL (≈ 87.8 µM)
- TGI (MDA-MB-231 breast): > 150 µg/mL
- GI50 (OVCAR-3 ovarian): 29.5 µg/mL (≈ 54.2 µM)
- TGI (OVCAR-3 ovarian): 69.3 µg/mL
- GI50 (SF-539 CNS): 50.9 µg/mL (≈ 93.4 µM)
- TGI (SF-539 CNS): > 150 µg/mL
- GI50 (COLO 205 colon): 69.2 µg/mL (≈ 127 µM)
- TGI (COLO 205 colon): > 150 µg/mL
- GI50 (SW-620 colon): 52.8 µg/mL (≈ 96.9 µM)
- TGI (SW-620 colon): > 150 µg/mL

Compound: O=c1oc2ccccc2c(O)c1Cc1ccc(Cc2c(O)c3ccccc3oc2=O)cc1
- TGI (A549 NSCLC): > 100 µM
- TGI (CAKI-1 renal): > 100 µM
- TGI (SNB-75 CNS): > 100 µM
- TGI (UO-31 renal): > 100 µM
- TGI (LOX IMVI melanoma): > 100 µM
- TGI (MDA-MB-231 breast): > 100 µM
- TGI (OVCAR-3 ovarian): > 100 µM
- TGI (SF-539 CNS): > 100 µM
- TGI (COLO 205 colon): > 100 µM
- TGI (SW-620 colon): > 100 µM

Compound: CCOC(=O)c1csc(NC(=O)C(C)N2CCCC2)n1 (stereo not given)
- TGI (A549 NSCLC): > 100 µM
- TGI (CAKI-1 renal): > 100 µM
- TGI (SNB-75 CNS): > 100 µM
- TGI (UO-31 renal): > 100 µM
- TGI (LOX IMVI melanoma): > 100 µM
- TGI (MDA-MB-231 breast): > 100 µM
- TGI (OVCAR-3 ovarian): > 100 µM
- TGI (SF-539 CNS): > 100 µM
- TGI (COLO 205 colon): > 100 µM
- TGI (SW-620 colon): > 100 µM
